Measurements reported in patent US6403810B2, “Thiophene derivatives” (Hoffmann-La Roche Inc., priority 2000, dated 2002).

How the values were obtained:
[1] = system: rat elastase-induced emphysema; assay: Repair of alveoli in elastase-induced emphysema (rat model); assay type: in vivo, male Sprague Dawley rats; settings: oral, once daily starting 21 days post elastase injury, morphometric analysis of lung sections
Procedure: A RAR selective agonist according to the invention was evaluated for its effects on alveolar repair in a rat model for rat elastase-induced emphysema in accordance to D. Massaro et al. Nature Medicine1997, 3, 675. Animals were divided into treatment groups of approximately eight. Lung inflammation and alveolar damage was induced in male Sprague Dawley rats by a single instillation of pancreatic elastase(porcine derived, Calbiochem) 2 U/gram body mass. Three weeks post injury, all-trans retinoic acid or RAR agonist test compound was dissolved in dimethyl-sulfoxide (20 mg/ml) and stored at −20 C. Fresh working stocks were prepared daily by dilution in PBS to a final concentration of 2mg/ml. Animals were dosed once daily with the retinoid by intraperitoneal injection or orally, starting 21 days post injury. Control groups were challenged with elastase and 21 days later treated with Vehicle (DMSO/PBS) for 14 days. Animals were sacrificed 24 hours after the last dose by exsanguination under deep anesthesia.
The lungs were inflated with 10% neutral buffered formalin by intratracheal instillation at a constant rate (1 ml/gram body mass/min). The lung was excised and immersed in fixative for 24 hours prior to processing. Standard methods were used to prepare 5 μm paraffin sections. Sections were stained with Hematoxylin and Eosin (H%E). Computerized Morphometric analysis was performed to determine the average alveolar size and alveolar number.

Row | SMILES | % repair area ([1]; dose 0.0001 mg/kg) [%] | % repair area ([1]; dose 0.001 mg/kg) [%] | % repair area ([1]; dose 0.01 mg/kg) [%] | % repair area ([1]; dose 0.1 mg/kg) [%] | melting point [°C]
1 | CCCCCCc1cc2c(cc1/C=C/c1ccc(C(=O)O)s1)C(C)(C)CCC2(C)C [Example 9, (E)-5-[2-(3-Hexyl-5,5,8,8-tetramethyl-5,6,7,8-tetrahydro-naphthalen-2-yl)-vinyl]-thiophene-2-carboxylic Acid] | 38 | 42 | 18 | 42 | 
2 | CCCCCc1cc2c(cc1/C=C/c1ccc(C(=O)O)s1)C(C)(C)CCC2(C)C [Example 9.2, (E)-5-[2-(3-pentyl-5,5,8,8-tetramethyl-5,6,7,8-tetrahydro-naphthalen-2-yl)-vinyl]thiophene-2-carboxylic acid] |  |  |  |  | 176 to 177
